In PubChem BioAssay (NCI):
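Each compound was tested at five concentrations against cells in 96-well plates for 48 hours. At the GI50, growth is halved. TGI marks complete inhibition of growth.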

How the values were obtained:
Assay in all cases: DTP human tumour cell line panel, 48 h
KM12 colon = tested on: KM12 colon
SK-MEL-2 melanoma = tested on: SK-MEL-2 melanoma
RXF 393 renal = tested on: RXF 393 renal
SW-620 colon = tested on: SW-620 colon
SNB-75 CNS = tested on: SNB-75 CNS
OVCAR-8 ovarian = tested on: OVCAR-8 ovarian
HOP-92 NSCLC = tested on: HOP-92 NSCLC
OVCAR-4 ovarian = tested on: OVCAR-4 ovarian
IGROV1 ovarian = tested on: IGROV1 ovarian
MDA-N = tested on: MDA-N
SNB-19 CNS = tested on: SNB-19 CNS
SF-539 CNS = tested on: SF-539 CNS
MOLT-4 leukemia = tested on: MOLT-4 leukemia
786-0 renal = tested on: 786-0 renal
T-47D breast = tested on: T-47D breast
UACC-257 melanoma = tested on: UACC-257 melanoma
A498 renal = tested on: A498 renal
UACC-62 melanoma = tested on: UACC-62 melanoma
MDA-MB-435 = tested on: MDA-MB-435
NCI-H226 lung = tested on: NCI-H226 lung
HCT-116 colon = tested on: HCT-116 colon
EKVX NSCLC = tested on: EKVX NSCLC
TK-10 renal = tested on: TK-10 renal
MCF7 breast = tested on: MCF7 breast
CCRF-CEM leukemia = tested on: CCRF-CEM leukemia
NCI-H23 lung = tested on: NCI-H23 lung
M14 melanoma = tested on: M14 melanoma
SK-MEL-5 melanoma = tested on: SK-MEL-5 melanoma
MDA-MB-231 breast = tested on: MDA-MB-231 breast
ACHN renal = tested on: ACHN renal
SR leukemia = tested on: SR leukemia
NCI-H522 lung = tested on: NCI-H522 lung
DU-145 prostate = tested on: DU-145 prostate
LOX IMVI melanoma = tested on: LOX IMVI melanoma
UO-31 renal = tested on: UO-31 renal
U251 CNS = tested on: U251 CNS
PC-3 prostate = tested on: PC-3 prostate
BT-549 breast = tested on: BT-549 breast
HL-60(TB) leukemia = tested on: HL-60(TB) leukemia
K-562 leukemia = tested on: K-562 leukemia
SF-295 CNS = tested on: SF-295 CNS
CAKI-1 renal = tested on: CAKI-1 renal
A549 NSCLC = tested on: A549 NSCLC
NCI-H460 lung = tested on: NCI-H460 lung
HOP-62 NSCLC = tested on: HOP-62 NSCLC
NCI/ADR-RES ovarian = tested on: NCI/ADR-RES ovarian
HCC-2998 colon = tested on: HCC-2998 colon
MALME-3M melanoma = tested on: MALME-3M melanoma
SK-OV-3 ovarian = tested on: SK-OV-3 ovarian
COLO 205 colon = tested on: COLO 205 colon
SK-MEL-28 melanoma = tested on: SK-MEL-28 melanoma
OVCAR-5 ovarian = tested on: OVCAR-5 ovarian
SN12C renal = tested on: SN12C renal
RPMI-8226 leukemia = tested on: RPMI-8226 leukemia
SF-268 CNS = tested on: SF-268 CNS
HT29 colon = tested on: HT29 colon
HS 578T breast = tested on: HS 578T breast
HCT-15 colon = tested on: HCT-15 colon
OVCAR-3 ovarian = tested on: OVCAR-3 ovarian

## CNc1ccc(C(=O)CC(O)CCC(C)C2OC(=O)CC(O)CC(=O)CC(O)CC(O)CC(O)CC(O)CC3(O)CC(O)C(C(=O)NCCN4CCOCC4)C(CC(OC4OC(C)C(O)C(N)C4O)/C=C/C=C/C=C/C=C\C=C/C=C/C=C/C2C)O3)cc1 (stereo unspecified)
KM12 colon
  TGI: > 100 µM
SK-MEL-2 melanoma
  TGI: 79.1 µM
RXF 393 renal
  TGI: > 100 µM
SW-620 colon
  TGI: > 100 µM
SNB-75 CNS
  TGI: > 100 µM
OVCAR-8 ovarian
  TGI: 36.8 µM
HOP-92 NSCLC
  TGI: > 100 µM
OVCAR-4 ovarian
  TGI: > 100 µM
IGROV1 ovarian
  TGI: > 100 µM
MDA-N
  TGI: > 100 µM
SNB-19 CNS
  TGI: > 100 µM
SF-539 CNS
  TGI: > 100 µM
MOLT-4 leukemia
  TGI: > 100 µM
786-0 renal
  TGI: > 100 µM
T-47D breast
  TGI: > 100 µM
UACC-257 melanoma
  TGI: 1.94 µM
A498 renal
  TGI: 0.8 µM
UACC-62 melanoma
  TGI: > 100 µM
MDA-MB-435
  TGI: > 100 µM
NCI-H226 lung
  TGI: > 100 µM
HCT-116 colon
  TGI: > 100 µM

## CN(C)CC1CCC2=C(C1=O)C(c1ccc(Cl)c(Cl)c1)C1=C(CCC(CN(C)C)C1=O)O2 (stereo unspecified)
KM12 colon
  GI50: 2.58 µM
  TGI: 8.85 µM
EKVX NSCLC
  GI50: 18.2 µM
  TGI: 34.1 µM
SK-MEL-2 melanoma
  GI50: 16.6 µM
  TGI: 30.7 µM
TK-10 renal
  GI50: 0.7 µM
  TGI: 1.98 µM
RXF 393 renal
  GI50: 9.18 µM
  TGI: 22.5 µM
MCF7 breast
  GI50: 1.26 µM
  TGI: 3.27 µM
CCRF-CEM leukemia
  GI50: 3.33 µM
  TGI: 26.3 µM
SW-620 colon
  GI50: 2.47 µM
  TGI: 16.9 µM
NCI-H23 lung
  GI50: 3.6 µM
  TGI: 11.9 µM
M14 melanoma
  GI50: 9.35 µM
  TGI: 23.4 µM
SK-MEL-5 melanoma
  GI50: 15.2 µM
  TGI: 29 µM
SNB-75 CNS
  GI50: 12.4 µM
  TGI: 25.8 µM
MDA-MB-231 breast
  GI50: 15.4 µM
  TGI: 28.7 µM
ACHN renal
  GI50: 14.3 µM
  TGI: 27.3 µM
SR leukemia
  GI50: 1.44 µM
  TGI: 5.37 µM
NCI-H522 lung
  GI50: 1.81 µM
  TGI: 3.37 µM
OVCAR-8 ovarian
  GI50: 4.25 µM
  TGI: 16 µM
DU-145 prostate
  GI50: 2.91 µM
  TGI: 9.09 µM
LOX IMVI melanoma
  GI50: 3.14 µM
  TGI: 15.2 µM
UO-31 renal
  GI50: 2.78 µM
  TGI: 7.17 µM
U251 CNS
  GI50: 11.7 µM
  TGI: 23.9 µM
HOP-92 NSCLC
  GI50: 11.3 µM
  TGI: 25.5 µM
PC-3 prostate
  TGI: 19.9 µM
OVCAR-4 ovarian
  GI50: 15.4 µM
  TGI: 29.9 µM
IGROV1 ovarian
  GI50: 4.54 µM
  TGI: 8.97 µM
BT-549 breast
  GI50: 14.2 µM
  TGI: 27.7 µM
HL-60(TB) leukemia
  GI50: 0.773 µM
  TGI: 3.53 µM
K-562 leukemia
  GI50: 2.46 µM
  TGI: 6.34 µM
SNB-19 CNS
  GI50: 16 µM
  TGI: 29.7 µM
SF-295 CNS
  GI50: 16.9 µM
  TGI: 30.5 µM
CAKI-1 renal
  GI50: 1.58 µM
  TGI: 3.03 µM
A549 NSCLC
  GI50: 16.2 µM
  TGI: 32.2 µM
NCI-H460 lung
  GI50: 10.3 µM
  TGI: 24.6 µM
HOP-62 NSCLC
  GI50: 12.5 µM
  TGI: 25.2 µM
SF-539 CNS
  GI50: 6.01 µM
  TGI: 18.2 µM
NCI/ADR-RES ovarian
  GI50: 19.4 µM
  TGI: 57.4 µM
HCC-2998 colon
  GI50: 0.0835 µM
  TGI: 14.6 µM
MOLT-4 leukemia
  GI50: 5.18 µM
  TGI: 22.1 µM
MALME-3M melanoma
  GI50: 14.9 µM
  TGI: 29.5 µM
SK-OV-3 ovarian
  GI50: 13.3 µM
  TGI: 26 µM
786-0 renal
  GI50: 1.58 µM
  TGI: 2.98 µM
COLO 205 colon
  GI50: 5.48 µM
  TGI: 19.6 µM
SK-MEL-28 melanoma
  GI50: 17.6 µM
  TGI: 34.6 µM
T-47D breast
  GI50: 2.05 µM
  TGI: 7.9 µM
UACC-257 melanoma
  GI50: 5.14 µM
  TGI: 10.8 µM
A498 renal
  GI50: 14.3 µM
  TGI: 27.4 µM
OVCAR-5 ovarian
  GI50: 20 µM
  TGI: 36.6 µM
SN12C renal
  GI50: 14 µM
  TGI: 30.2 µM
RPMI-8226 leukemia
  GI50: 0.389 µM
  TGI: 4.36 µM
SF-268 CNS
  GI50: 15.6 µM
  TGI: 29.5 µM
HT29 colon
  GI50: 8.57 µM
  TGI: 22.4 µM
UACC-62 melanoma
  GI50: 15.3 µM
  TGI: 28.7 µM
HS 578T breast
  GI50: 15.6 µM
  TGI: 36.2 µM
HCT-15 colon
  GI50: 8.75 µM
  TGI: 29.2 µM
OVCAR-3 ovarian
  GI50: 1.6 µM
  TGI: 5.89 µM
MDA-MB-435
  GI50: 4.81 µM
  TGI: 17.5 µM
NCI-H226 lung
  GI50: 15.3 µM
  TGI: 31.2 µM
HCT-116 colon
  GI50: 10.4 µM
  TGI: 23.4 µM
